“Also recorded” adds a separate entry of the source.

We go through 4 molecules from US20180363025A1, “T[…] FOR GUT INFLAMMATION” (William Marsh Rice University, priority 2015, published 2018).

Test [1] relates to Shal_3128/9. Kind of test: Ligand competition assay, sensor response to thiosulfate in presence of other TEAs. To be noted: 5 mM thiosulfate plus 10 mM other TEA; FIG. 3E. The format is cell-based, Shewanella halifaxensis. As for the experimental part: FIG. 3A-F. Characterization of the thiosulfate-sensing proteins: Shal_3128/9. (3A) The S. halifaxensis genomic region containing the thiosulfate reductase operon (Shal_3125-7) and neighboring thiosulfate-sensing TCS (Shal_3128/9). (3B) Plasmid design of the inducible thiosulfate sensor. […] (3D) Selectivity of Shal_3128/9 to thiosulfate over other terminal electron acceptors. All TEAs were tested at 10 mM concentration. (3E) Ligand competition assay. Sensor performance at 5 mM thiosulfate was tested in the presence of 10 mM other TEAs, and a decrease in response indicates inhibition by the added ligand. (3F) Inhibition curve of tetrathionate (filled circles) and sulfite (open squares) in the presence of 5 mM thiosulfate.

Test [2] relates to Shal_3128/9. The settings on record: TEAs tested at 10 mM; E. coli BW28357 expressing Shal_3128/9; FIG. 3D.
Description: The sensor kinase was expressed from a p15A medium-copy expression vector with spectinomycin resistance. Production of Shal_3128 was driven by the Ptac promoter and a designed synthetic RBS (predicted strength 1,000), which was induced by IPTG and regulated by constitutively expressed LacI. Transcription of Shal_3128, LacI, and Spec^R was terminated by the B0015, T1, and T0 terminators, respectively.
The response regulator and rewired output promoter driving GFP production were on a ColE1 high-copy expression vector with chloramphenicol resistance. Shal_3129 production was regulated by constitutively expressed TetR at the PLTetO-1 aTc-inducible promoter with a synthetic RBS (predicted strength 1,000). […] Production of sfGFP was regulated by output of the PShal_3127 promoter using the B0034 RBS, which provides a visual readout of Shal_3128/9 activity. Transcription of Shal_3129, sfGFP, TetR, and Cm^R was terminated by the B0015, B0015, T1, and T0 terminators, respectively.
Both plasmids were transformed into the BW28357 E. coli strain, available from The Coli Genetic Stock Center (CGSC#: 7991, F−, Δ(araD-araB)567, ΔlacZ4787(TrnB-3); lambda^−, Δ(rhaD-rhaB)568, hsdR514).
The next test relates to thiosulfate sensor. As to the kind of experiment: Effect of DSS on GFP output of optimized thiosulfate sensor. In kind it is cell-based, Shewanella halifaxensis. To be noted: 3% DSS; optimized constitutive sensor in E. coli Nissle; FIG. 4D. The text has this:
FIG. 4A-D. Sensor optimization for thiosulfate detection in the gut. (4A) Changes made between the initial characterization constructs and in vivo optimized sensor. (4B) Layout of sensor components on the final two plasmid expression system. (4C) Normalized dose-response behavior of thiosulfate sensors. Shown is the original, inducible, BW28357 strain grown aerobically (closed circles), and the selected constitutive promoter strain in Nissle grown aerobically (closed squares) and anaerobically (open squares). A shift in half-maximal response indicates sensitivity to oxygen. (4D) Dynamic range of optimized thiosulfate sensors. GFP output is shown in the absence (grey bars) and presence of 5 mM thiosulfate or 1 mM tetrathionate, respectively (black bars).

thiosulfate sensor, sequence (as listed by the source): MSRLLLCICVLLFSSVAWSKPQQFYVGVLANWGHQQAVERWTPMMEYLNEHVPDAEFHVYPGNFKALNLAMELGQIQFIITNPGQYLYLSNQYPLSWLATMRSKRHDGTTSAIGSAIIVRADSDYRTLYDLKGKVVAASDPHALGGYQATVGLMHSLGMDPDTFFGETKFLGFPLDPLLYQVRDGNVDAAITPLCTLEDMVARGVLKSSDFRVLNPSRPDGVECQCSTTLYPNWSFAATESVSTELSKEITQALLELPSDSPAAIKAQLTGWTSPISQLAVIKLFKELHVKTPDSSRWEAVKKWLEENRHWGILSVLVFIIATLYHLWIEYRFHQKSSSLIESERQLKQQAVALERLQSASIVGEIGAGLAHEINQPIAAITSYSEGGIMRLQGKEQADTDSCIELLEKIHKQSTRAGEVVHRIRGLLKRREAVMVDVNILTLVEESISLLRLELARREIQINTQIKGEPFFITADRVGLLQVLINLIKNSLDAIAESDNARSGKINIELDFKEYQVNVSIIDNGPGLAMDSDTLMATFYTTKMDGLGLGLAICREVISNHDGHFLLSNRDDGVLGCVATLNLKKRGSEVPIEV
thiosulfate sensor, sequence (as listed by the source partner): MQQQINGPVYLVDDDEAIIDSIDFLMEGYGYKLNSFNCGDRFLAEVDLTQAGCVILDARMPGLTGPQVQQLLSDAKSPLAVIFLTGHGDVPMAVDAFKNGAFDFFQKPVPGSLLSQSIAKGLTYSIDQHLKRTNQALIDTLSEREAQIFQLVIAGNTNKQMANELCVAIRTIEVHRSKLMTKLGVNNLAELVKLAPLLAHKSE

For `O=S(O)O` [sulfite], in the test on Shal_3128/9 [1], the “competition (inhibition of thiosulfate response)” value is reported as “modest level of competition”.

In the case of `O=S(O)(O)=S` [thiosulfate], the “stimulation of production of reporter protein GFP” value in the test with Shal_3128/9 [2] was “effectively stimulated production of reporter protein GFP”.

Dextran Sodium Sulfate [DSS]: the “activation or inhibition of sensor signaling” value in the test with thiosulfate sensor is listed as “does not activate or inhibit signaling; also recorded: does not appear to be sensitive”.

`O=S(=O)(O)SSS(=O)(=O)O` [tetrathionate]: the “competition (inhibition of thiosulfate response)” value with Shal_3128/9 [1] is “modest level of competition”.
